Measured values taken from patent US11028041B2, “Second generation GRP94-selective inhibitors” (University of Kansas, priority 2017, dated 2021).

Legend:
Hsp90α = Hsp90α (Homo sapiens (Human), UniProt P07900); experiment: Fluorescence polarization assay against Hsp90α; assay type: binding; details: FITC-GDA tracer, 100 μM highest concentration tested, average of two independent experiments ± SEM, read-out: Apparent Kd Hsp90α
Description: Fluorescence Polarization. The assay was performed in 96-well black, flat-bottom plates with a final volume of 100 μL. 25 μL of assay buffer (20 mM HEPES, pH 7.3, 50 mM KCl, 5 mM MgCl2, 20 mM Na2MoO4, 2 mM DTT, 0.1 mg/mL BGG, and 0.01% NP-40) were added, followed by 25 μL of assay buffer containing 6 nM FITC-GDA (fluorescent tracer, stock in DMSO, diluted in assay buffer) and 50 μL of assay buffer containing 10 nM of either Grp94 or Hsp90α were added to each well. For each plate, wells containing buffer only (background), tracer in buffer only (low polarization control) and protein, tracer, and 1% DMSO (final concentration, high polarization control) were included. Compounds were then added with a final concentration of DMSO=1%. Plates were incubated at 4° C. with rocking for 24 h. […] Polarization values were correlated to % tracer bound and compound concentrations.

MDA-MB-231 cells [1] = experiment: Anti-proliferation MTS/PMS assay, MDA-MB-231; assay type: cell-based; details: Homo sapiens, 72 h, average of two independent experiments ± SEM
Description: (§1) Compounds or vehicle were administered in DMSO (1% DMSO final concentration) and the plates were placed back in the incubator. After 72 h, the % viable cells were determined using the MTS/PMS cell proliferation kit (Promega) per the manufacturer's instructions. Cells treated with vehicle were normalized to 100% viable and compound treated wells were adjusted accordingly.

PC3-MM2 cells [2] = experiment: Anti-proliferation MTS/PMS assay, PC3-MM2; assay type: cell-based; details: Homo sapiens, PC3MM2, 72 h, average of two independent experiments ± SEM
Description: as §1

SK-MEL-28 cells [3] = experiment: Anti-proliferation MTS/PMS assay, SK-MEL-28; assay type: cell-based; details: Homo sapiens, 72 h, average of two independent experiments ± SEM
Description: as §1

A549 cells [4] = experiment: Anti-proliferation MTS/PMS assay, A549; assay type: cell-based; details: Homo sapiens, 72 h, average of two independent experiments ± SEM
Description: as §1

MDA-MB-231 cells [5] = details: 500 nM, after 24 h
Description: (§2) Wound Healing Scratch Assay. Cells were counted via Trypan blue exclusion and seeded in 12-well plates at 200,000 cells/mL/well and returned to the incubator for 24 h. Scratches were made with a 0.1-10 μL pipette tip, then cells were washed with PBS and fresh media was added. […] Plates were returned to the incubator until 24 h pictures were taken. Images were processed and % migration determined via ImageJ. All experiments were performed in quadruplicate.

PC3-MM2 cells [6] = details: 500 nM, after 24 h
Description: as §2

SK-MEL-28 cells [7] = experiment: Wound healing scratch assay, SK-MEL-28; assay type: cell-based; details: after 24 h
Description: (§3) Cell Culture. […] Wound Healing Scratch Assay. […] Images were processed and % migration determined via ImageJ. All experiments were performed in quadruplicate.

A549 cells [8] = experiment: Wound healing scratch assay, A549; assay type: cell-based; details: 500 nM, 24 h
Description: as §3

Akt = experiment: Western blot analysis, cytosolic Hsp90-dependent client protein Akt; assay type: cell-based; details: MDA-MB-231, PC3-MM2, SK-MEL-28, A549; 24 h; geldanamycin at 0.5 μM
Description: (§4) Western Blot Analysis. […] Cells were harvested in cold PBS and lysed using MPER (Thermo Scientific) supplemented with protease inhibitors (Roche) according the manufacturer's instructions. Cell lysates were obtained by centrifugation at 15,000 rpm for 10 min at 4° C. Protein concentrations were determined using the Pierce BCA assay kit following the manufacturer's instructions. Equal amounts of protein were separated via gel electrophoresis under reducing conditions (10% acrylamide gels) then transferred to PVDF membranes and immunoblotted with the corresponding primary antibodies. Membranes were then incubated with the correct HRP-labeled secondary antibody, developed with a chemiluminescent substrate, and visualized.

Hsp70 = experiment: Western blot analysis, Hsp70 induction; assay type: cell-based; details: MDA-MB-231, PC3-MM2, SK-MEL-28, A549; 24 h; geldanamycin at 0.5 μM
Description: as §4

SMILES	Kd (Hsp90α) [µM]	also measured
COC(=O)c1c(O)cc(O)c(Cl)c1CCc1cccc(OC)c1Cc1ccccc1 [Compound 18, methyl 2-(2-benzyl-3-methoxyphenethyl)-3-chloro-4,6-dihydroxybenzoate]	13.7 ± 1.4	
COC(=O)c1c(O)cc(O)c(Cl)c1CCc1ccccc1Cc1ccccc1OC [Compound 26, methyl 3-chloro-4,6-dihydroxy-2-(2-(2-methoxybenzyl)phenethyl)benzoate]	> 100	
COC(=O)c1c(O)cc(O)c(Cl)c1CCc1ccccc1Cc1ccc(F)cc1 [Compound 30, methyl 3-chloro-2-(2-(4-fluorobenzyl)phenethyl)-4,6-dihydroxybenzoate]		GI50 (MDA-MB-231 cells [1]): 22.4 ± 1.9 µM; GI50 (PC3-MM2 cells [2]): 18.3 ± 2.3 µM; GI50 (SK-MEL-28 cells [3]): 16.6 ± 1.2 µM; GI50 (A549 cells [4]): 16.7 ± 1.2 µM; % migration (MDA-MB-231 cells [5]): 38-40%; % migration (PC3-MM2 cells [6]): 38-40%; effect on migration (SK-MEL-28 cells [7]): demonstrated a susceptibility to Grp94 inhibition; anti-migratory effect (A549 cells [8]): demonstrated an anti-migratory effect; degradation of Akt (Akt): did not induce the degradation of Akt; induction of Hsp70 (Hsp70): nor did it result in the induction of Hsp70
COC(=O)c1c(O)cc(O)c(Cl)c1CCc1cccc(Cc2ccccc2)c1 [Compound 7, methyl 2-(3-benzylphenethyl)-3-chloro-4,6-dihydroxybenzoate]	> 100	
COC(=O)c1c(O)cc(O)c(Cl)c1CCc1ccccc1Cc1cccc(Cl)c1 [Compound 28, methyl 3-chloro-2-(2-(3-chlorobenzyl)phenethyl)-4,6-dihydroxybenzoate]	44.6 ± 2	
COC(=O)c1c(O)cc(O)c(Cl)c1CCc1ccc(N)cc1Cc1ccccc1 [Compound 20, methyl 2-(4-amino-2-benzylphenethyl)-3-chloro-4,6-dihydroxybenzoate]	0.34 ± 0.07	
COC(=O)c1c(O)cc(O)c(Cl)c1CCc1cccc(O)c1Cc1ccccc1 [Compound 24, methyl 2-(2-benzyl-3-hydroxyphenethyl)-3-chloro-4,6-dihydroxybenzoate]	2 ± 0.2	
COC(=O)c1c(O)cc(O)c(Cl)c1CCc1ccc(O)cc1Cc1ccccc1 [Compound 23, methyl 2-(2-benzyl-4-hydroxyphenethyl)-3-chloro-4,6-dihydroxybenzoate]	0.92 ± 0.03	
CCOc1ccccc1Cc1ccccc1CCc1c(Cl)c(O)cc(O)c1C(=O)OC [Compound 25, methyl 3-chloro-2-(2-(2-ethoxybenzyl)phenethyl)-4,6-dihydroxybenzoate]	> 100	
COC(=O)c1c(O)cc(O)c(Cl)c1CCc1cc(O)ccc1Cc1ccccc1 [Compound 22, methyl 2-(2-benzyl-5-hydroxyphenethyl)-3-chloro-4,6-dihydroxybenzoate]	2.1 ± 0.1	
COC(=O)c1c(O)cc(O)c(Cl)c1CCc1cc(N)ccc1Cc1ccccc1 [Compound 19, methyl 2-(5-amino-2-benzylphenethyl)-3-chloro-4,6-dihydroxybenzoate]	1 ± 0.1	
COC(=O)c1c(O)cc(O)c(Cl)c1CCc1ccc(OC)cc1Cc1ccccc1 [Compound 17, methyl 2-(2-benzyl-4-methoxyphenethyl)-3-chloro-4,6-dihydroxybenzoate]	2.6 ± 0.6	
COC(=O)c1c(O)cc(O)c(Cl)c1CCc1ccccc1Cc1ccccc1 [Compound 6, methyl 2-(2-benzylphenethyl)-3-chloro-4,6-dihydroxybenzoate]	20.7 ± 0.5	
COC(=O)c1c(O)cc(O)c(Cl)c1CCc1ccccc1Cc1ccccc1Cl [Compound 27, methyl 3-chloro-2-(2-(2-chlorobenzyl)phenethyl)-4,6-dihydroxybenzoate]	> 100	
COC(=O)c1c(O)cc(O)c(Cl)c1CCc1ccccc1Cc1ccc(Cl)cc1 [Compound 29, methyl 3-chloro-2-(2-(4-chlorobenzyl)phenethyl)-4,6-dihydroxybenzoate]	> 100	
COC(=O)c1c(O)cc(O)c(Cl)c1CCc1cc(OC)ccc1Cc1ccccc1 [Compound 16, methyl 2-(2-benzyl-5-methoxyphenethyl)-3-chloro-4,6-dihydroxybenzoate]	2.2 ± 0.2	
COC1=C2C[C@@H](C)C[C@H](OC)[C@H](O)[C@@H](C)/C=C(\C)[C@H](OC(N)=O)[C@@H](OC)/C=C\C=C(/C)C(=O)NC(=CC1=O)C2=O [geldanamycin, reference compound]		degradation of Akt (Akt): induced the degradation of Akt; induction of Hsp70 (Hsp70): increased the levels of Hsp70
